From patent US20240199605A1, “SMALL MOLECULAR INHIBITORS OF NF-kB INDUCING KINASE” (Janssen Pharmaceutica NV, priority 2019, published 2024)

Columns and labels:
[1] = test system: p-IKKα levels in L363 (NIK translocated multiple myeloma) cells; experiment: Effect of compounds on p-IKKα levels in L363 cells (AlphaLISA SureFire Ultra); type: cell-based, human; conditions: Homo sapiens, L-363, 6 h, BAFF stimulated, MG132, 6 h, average of values, read-out: Assay 2 IC50
Summary of the method: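 Inhibition of p-IKKα (Ser176/180) read by AlphaLISA after 6 h, 37 °C compound exposure (11-point 1:3 series, 0.3% DMSO) of L363 cells pre-incubated overnight ± 250 ng/ml BAFF and plated ± BAFF ± 10 μM MG132. Normalised to BAFF/MG132/DMSO and unstimulated controls; IC50 by sigmoidal fitting, duplicates.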

[2] = target: recombinant human NF-kappaB-inducing kinase (NIK/MAP3K14) (Homo sapiens (Human), UniProt Q99558); experiment: Inhibition of auto-phosphorylation of recombinant human NIK/MAP3K14 (AlphaScreen); type: biochemical; conditions: NIK auto-phosphorylation, 5 μM ATP, 1 nM NIK, 2 h at 25° C.; average of values
recombinant human NF-kappaB-inducing kinase (NIK/MAP3K14), sequence (Q99558 whole entry): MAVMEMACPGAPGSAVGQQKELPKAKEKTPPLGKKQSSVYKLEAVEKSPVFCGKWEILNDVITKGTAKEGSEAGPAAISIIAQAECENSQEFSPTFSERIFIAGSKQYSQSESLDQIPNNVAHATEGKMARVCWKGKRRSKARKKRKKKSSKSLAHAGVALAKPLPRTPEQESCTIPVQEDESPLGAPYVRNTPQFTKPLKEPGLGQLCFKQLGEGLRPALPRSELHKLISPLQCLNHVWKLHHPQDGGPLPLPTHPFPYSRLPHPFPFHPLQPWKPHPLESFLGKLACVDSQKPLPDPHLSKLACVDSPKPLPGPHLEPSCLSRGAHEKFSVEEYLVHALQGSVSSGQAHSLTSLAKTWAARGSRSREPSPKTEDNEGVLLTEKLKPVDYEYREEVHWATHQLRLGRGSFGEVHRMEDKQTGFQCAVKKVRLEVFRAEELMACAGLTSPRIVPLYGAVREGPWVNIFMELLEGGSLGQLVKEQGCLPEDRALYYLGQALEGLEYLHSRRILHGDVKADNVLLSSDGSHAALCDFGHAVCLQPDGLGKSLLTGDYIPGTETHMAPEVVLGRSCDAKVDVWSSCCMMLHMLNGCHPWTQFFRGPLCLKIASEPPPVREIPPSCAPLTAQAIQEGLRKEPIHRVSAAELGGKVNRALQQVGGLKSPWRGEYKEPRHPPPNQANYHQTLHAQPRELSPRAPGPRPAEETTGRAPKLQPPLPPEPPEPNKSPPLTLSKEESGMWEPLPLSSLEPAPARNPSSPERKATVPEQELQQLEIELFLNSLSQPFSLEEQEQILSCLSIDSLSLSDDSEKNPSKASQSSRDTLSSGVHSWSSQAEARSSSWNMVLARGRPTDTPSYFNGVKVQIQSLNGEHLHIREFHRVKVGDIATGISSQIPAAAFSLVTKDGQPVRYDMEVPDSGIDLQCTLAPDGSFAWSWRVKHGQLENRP
Summary of the method: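 GST-tagged NIK (1 nM) auto-phosphorylated with 5 μM ATP for 2 h at 25° C. in 50 mM Tris pH 7.5, 5 mM MgCl2, 1 mM EGTA, 1 mM DTT, 0.1 mM Na3VO4, 0.01% Tween 20 (0.7% DMSO). Detected by AlphaScreen via anti-phospho-IKK Ser176/180 antibody; IC50 from sigmoidal fit of % inhibition versus log concentration.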

CN1CC[C@@](O)(C#Cc2cccc(-c3ccc4ccnc(N5CCC5)c4c3)c2)C1=O [Example 234, (R)-3-((3-(1-(Azetidin-1-yl)isoquinolin-7-yl)phenyl)ethynyl)-3-hydroxy-1-methylpyrrolidin-2-one]
IC50 [1]: > 5000 nM
IC50 [2]: 1800 nM

CN1CC[C@@](O)(C#Cc2cccc(-c3ccc4nccc(N5CCC5)c4c3)c2)C1=O [Example 235, (R)-3-((3-(4-(Azetidin-1-yl)quinolin-6-yl)phenyl)ethynyl)-3-hydroxy-1-methylpyrrolidin-2-one]
IC50 [1]: > 5000 nM
IC50 [2]: 2950 nM

CN1CC[C@@](O)(C#Cc2cccc(-c3ccc4ncnc(NC5CCC5)c4n3)c2)C1=O [Example 236, (R)-3-((3-(4-(Cyclobutylamino)pyrido[3,2-d]pyrimidin-6-yl)phenyl)ethynyl)-3-hydroxy-1-methylpyrrolidin-2-one]
IC50 [1]: 1370 nM
IC50 [2]: 57 nM

Cc1nc(N)c2nc(-c3cc(C#C[C@]4(O)CCN(C)C4=O)ccc3OC(F)(F)F)ccc2n1 [Example 237, (R)-3-((3-(4-Amino-2-methylpyrido[3,2-d]pyrimidin-6-yl)-4-(trifluoromethoxy)phenyl)ethynyl)-3-hydroxy-1-methylpyrrolidin-2-one]
IC50 [1]: 240 nM
IC50 [2]: 9.2 nM

CN1CC[C@@](O)(C#Cc2cccc(-c3ccc4ncnc(N5CC(F)C5)c4n3)c2)C1=O [Example 239, (R)-3-((3-(4-(3-Fluoroazetidin-1-yl)pyrido[3,2-d]pyrimidin-6-yl)phenyl)ethynyl)-3-hydroxy-1-methylpyrrolidin-2-one]
IC50 [1]: 69 nM
IC50 [2]: 1.5 nM

CN1CC[C@@](O)(C#Cc2cccc(-c3ccc4ncnc(NCC#N)c4n3)c2)C1=O [Example 240, (R)-2-((6-(3-((3-Hydroxy-1-methyl-2-oxopyrrolidin-3-yl)ethynyl)phenyl)pyrido[3,2-d]pyrimidin-4-yl)amino)acetonitrile]
IC50 [1]: 570 nM
IC50 [2]: 21 nM

CN1CC[C@@](O)(C#Cc2cccc(-c3ccc4ncnc(NCC(F)F)c4n3)c2)C1=O [Example 241, (R)-3-((3-(4-((2,2-Difluoroethyl)amino)pyrido[3,2-d]pyrimidin-6-yl)phenyl)ethynyl)-3-hydroxy-1-methylpyrrolidin-2-one]
IC50 [1]: 930 nM
IC50 [2]: 56 nM

CN1CC[C@@](O)(C#Cc2cccc(-c3ccc4ncnc(N5CC(C#N)C5)c4n3)c2)C1=O [Example 242, (R)-1-(6-(3-((3-Hydroxy-1-methyl-2-oxopyrrolidin-3-yl)ethynyl)phenyl)pyrido[3,2-d]pyrimidin-4-yl)azetidine-3-carbonitrile]
IC50 [1]: 320 nM
IC50 [2]: 7.4 nM

CN1CC[C@@](O)(C#Cc2cccc(-c3ccc4ncnc(N5CCC5)c4c3)c2)C1=O [Example 243, (R)-3-((3-(4-(Azetidin-1-yl)quinazolin-6-yl)phenyl)ethynyl)-3-hydroxy-1-methylpyrrolidin-2-one]
IC50 [1]: 670 nM
IC50 [2]: 14 nM

CN1CC[C@@](O)(C#Cc2cccc(-c3ccc4ncnc(N5CC(Cl)C5)c4n3)c2)C1=O [Example 244, (R)-3-((3-(4-(3-Chloroazetidin-1-yl)pyrido[3,2-d]pyrimidin-6-yl)phenyl)ethynyl)-3-hydroxy-1-methylpyrrolidin-2-one]
IC50 [1]: 240 nM
IC50 [2]: 4.9 nM

CN1CC[C@@](O)(C#Cc2cccc(-c3ccc4ncnc(N5CC(S(C)(=O)=O)C5)c4n3)c2)C1=O [Example 245, (R)-3-Hydroxy-1-methyl-3-((3-(4-(3-(methylsulfonyl)azetidin-1-yl)pyrido[3,2-d]pyrimidin-6-yl)phenyl)ethynyl)pyrrolidin-2-one]
IC50 [1]: 1190 nM
IC50 [2]: 40 nM

CNC(=O)C1CN(c2ncnc3ccc(-c4cccc(C#C[C@]5(O)CCN(C)C5=O)c4)nc23)C1 [Example 246, (R)-1-(6-(3-((3-Hydroxy-1-methyl-2-oxopyrrolidin-3-yl)ethynyl)phenyl)pyrido[3,2-d]pyrimidin-4-yl)-N-methylazetidine-3-carboxamide]
IC50 [1]: 3790 nM
IC50 [2]: 23 nM

CN1CC[C@@](O)(C#Cc2cccc(-c3ncc4ccnc(N5CCC5)c4n3)c2)C1=O [Example 247, (R)-3-((3-(8-(Azetidin-1-yl)pyrido[3,4-d]pyrimidin-2-yl)phenyl)ethynyl)-3-hydroxy-1-methylpyrrolidin-2-one]
IC50 [1]: > 5000 nM
IC50 [2]: 850 nM

Cc1ncc(Br)c2ccc(-c3cccc(C#C[C@]4(O)CCN(C)C4=O)c3)nc12 [Example 249, (R)-3-((3-(5-Bromo-8-methyl-1,7-naphthyridin-2-yl)phenyl)ethynyl)-3-hydroxy-1-methylpyrrolidin-2-one]
IC50 [1]: 470 nM
IC50 [2]: 7.3 nM

Cc1cc(-c2cccc(C#C[C@]3(O)CCN(C)C3=O)c2)nc2c(C)ncnc12 [Example 250, (R)-3-((3-(4,8-Dimethylpyrido[3,2-d]pyrimidin-6-yl)phenyl)ethynyl)-3-hydroxy-1-methylpyrrolidin-2-one]
IC50 [1]: 130 nM
IC50 [2]: 7.9 nM

Cc1ncc(C#N)c2ccc(-c3cccc(C#C[C@]4(O)CCN(C)C4=O)c3)nc12 [Example 251, (R)-2-(3-((3-Hydroxy-1-methyl-2-oxopyrrolidin-3-yl)ethynyl)phenyl)-8-methyl-1,7-naphthyridine-5-carbonitrile]
IC50 [1]: 560 nM
IC50 [2]: 86 nM

Cc1cnc(C)c2nc(-c3cccc(C#C[C@]4(O)CCN(C)C4=O)c3)ccc12 [Example 252, (R)-3-((3-(5,8-Dimethyl-1,7-naphthyridin-2-yl)phenyl)ethynyl)-3-hydroxy-1-methylpyrrolidin-2-one]
IC50 [1]: > 2000 nM
IC50 [2]: 31 nM

CN1CC[C@@](O)(C#Cc2cccc(-c3cc(Br)c4ncnc(N)c4n3)c2)C1=O [Example 253, (R)-3-((3-(4-Amino-8-bromopyrido[3,2-d]pyrimidin-6-yl)phenyl)ethynyl)-3-hydroxy-1-methylpyrrolidin-2-one]
IC50 [1]: 5.1 nM
IC50 [2]: 0.4 nM

CN1CC[C@](O)(C#Cc2cccc(-c3cc(Br)c4ncnc(N)c4n3)c2)C1=O [Example 254, (S)-3-((3-(4-Amino-8-bromopyrido[3,2-d]pyrimidin-6-yl)phenyl)ethynyl)-3-hydroxy-1-methylpyrrolidin-2-one]
IC50 [1]: 1330 nM
IC50 [2]: 230 nM

CN1CC[C@@](O)(C#Cc2cccc(-c3cc(C4CCOCC4)c4ncnc(N)c4n3)c2)C1=O [Example 255, (R)-3-((3-(4-Amino-8-(tetrahydro-2H-pyran-4-yl)pyrido[3,2-d]pyrimidin-6-yl)phenyl)ethynyl)-3-hydroxy-1-methylpyrrolidin-2-one]
IC50 [1]: 15 nM
IC50 [2]: 0.7 nM

CN1CC[C@](O)(C#Cc2cccc(-c3cc(C4CCOCC4)c4ncnc(N)c4n3)c2)C1=O [Example 256, (S)-3-((3-(4-Amino-8-(tetrahydro-2H-pyran-4-yl)pyrido[3,2-d]pyrimidin-6-yl)phenyl)ethynyl)-3-hydroxy-1-methylpyrrolidin-2-one]
IC50 [1]: 4150 nM
IC50 [2]: 350 nM

CN1CC[C@@](O)(C#Cc2cccc(-c3ccc4ncnc(-c5ccccc5)c4n3)c2)C1=O [Example 257, (R)-3-Hydroxy-1-methyl-3-((3-(4-phenylpyrido[3,2-d]pyrimidin-6-yl)phenyl)ethynyl)pyrrolidin-2-one]
IC50 [1]: 2460 nM
IC50 [2]: 44 nM

CC(=O)Nc1nc(C)nc2ccc(-c3cccc(C#C[C@]4(O)CCN(C)C4=O)c3)nc12 [Example 258, (R)—N-(6-(3-((3-Hydroxy-1-methyl-2-oxopyrrolidin-3-yl)ethynyl)phenyl)-2-methylpyrido[3,2-d]pyrimidin-4-yl)acetamide]
IC50 [1]: 450 nM
IC50 [2]: 210 nM

Cc1ccc(C#C[C@@]2(O)CCN(C)C2=O)cc1-c1ccc2ncnc(N)c2n1 [Example 260, (S)-3-((3-(4-Aminopyrido[3,2-d]pyrimidin-6-yl)-4-methylphenyl)ethynyl)-3-hydroxy-1-methylpyrrolidin-2-one]
IC50 [1]: 2740 nM
IC50 [2]: 110 nM

Cc1nc(N)c2nc(-c3cccc(C#C[C@]4(O)C[C@@H](C)N(C)C4=O)c3)ccc2n1 [Example 265, (3R,5R)-3-((3-(4-Amino-2-methylpyrido[3,2-d]pyrimidin-6-yl)phenyl)ethynyl)-3-hydroxy-1,5-dimethylpyrrolidin-2-one]
IC50 [1]: 28 nM
IC50 [2]: 1.9 nM

Cc1nc(N)c2nc(-c3cccc(C#C[C@@]4(O)C[C@H](C)N(C)C4=O)c3)ccc2n1 [Example 266, (3S,5S)-3-((3-(4-Amino-2-methylpyrido[3,2-d]pyrimidin-6-yl)phenyl)ethynyl)-3-hydroxy-1,5-dimethylpyrrolidin-2-one]
IC50 [1]: 3700 nM
IC50 [2]: 680 nM

Cc1nc(N)c2nc(-c3cccc(C#C[C@@]4(O)C[C@@H](C)N(C)C4=O)c3)ccc2n1 [Example 267, (3S,5R)-3-((3-(4-Amino-2-methylpyrido[3,2-d]pyrimidin-6-yl)phenyl)ethynyl)-3-hydroxy-1,5-dimethylpyrrolidin-2-one]
IC50 [1]: 2820 nM
IC50 [2]: 385 nM

Cc1nc(N)c2nc(-c3cccc(C#C[C@]4(O)C[C@H](C)N(C)C4=O)c3)ccc2n1 [Example 268, (3R,5S)-3-((3-(4-Amino-2-methylpyrido[3,2-d]pyrimidin-6-yl)phenyl)ethynyl)-3-hydroxy-1,5-dimethylpyrrolidin-2-one]
IC50 [1]: 585 nM
IC50 [2]: 65 nM

CN1CC[C@@](O)(C#Cc2cccc(-c3ccc4ncnc(C5CC5)c4n3)c2)C1=O [Example 270, (R)-3-((3-(4-Cyclopropylpyrido[3,2-d]pyrimidin-6-yl)phenyl)ethynyl)-3-hydroxy-1-methylpyrrolidin-2-one]
IC50 [1]: 1000 nM
IC50 [2]: 26 nM
